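In this assay, cells in 96-well plates receive the compound at five concentrations for 48 hours. Endpoints are linearly interpolated between the surrounding concentrations. The concentration for 50% growth inhibition is given as GI50. TGI: concentration producing complete growth inhibition.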
Tested on: M14 melanoma
Experiment: DTP human tumour cell line panel, 48 h

| SMILES | TGI [µM] | GI50 [µM] |
| --- | --- | --- |
| O=c1c2ncn(C3CCCO3)c2n(-c2ccccc2)c(=S)n1-c1ccccc1 (stereo unspecified) | > 100 |  |
| O=C1CCC/C=C\C[C@H]2C=CC(=O)/C2=C/C[C@H](C/C=C\CC(F)(F)F)O1 | 1.7 | 0.493 |
| Oc1cn(-c2ccc(Cl)cc2)nc1-c1n[nH]c(=S)n1-c1ccccc1 | 20.4 |  |
| CC(C)=CCc1cc(O)cc2c1OC(C=C(C)C)C1=C2C(=O)C2=C(C1=O)S(=O)(=O)CCN2 (stereo unspecified) | 5.59 | 2.92 |

Tested on: COLO 205 colon
Experiment: DTP human tumour cell line panel, 48 h

| SMILES | TGI [µM] | GI50 [µM] |
| --- | --- | --- |
| O=c1c2ncn(C3CCCO3)c2n(-c2ccccc2)c(=S)n1-c1ccccc1 (stereo unspecified) | > 100 |  |
| CC(=O)c1c(O)ccc2c1c1c(n2C)C(=O)c2ccccc2C1=O | > 100 |  |
| O=C1CCC/C=C\C[C@H]2C=CC(=O)/C2=C/C[C@H](C/C=C\CC(F)(F)F)O1 | 0.726 | 0.368 |
| Oc1cn(-c2ccc(Cl)cc2)nc1-c1n[nH]c(=S)n1-c1ccccc1 | 54.9 |  |
| CC(C)=CCc1cc(O)cc2c1OC(C=C(C)C)C1=C2C(=O)C2=C(C1=O)S(=O)(=O)CCN2 (stereo unspecified) | > 16.7 | 5.42 |

Tested on: SK-MEL-5 melanoma
Experiment: DTP human tumour cell line panel, 48 h

| SMILES | TGI [µM] | GI50 [µM] |
| --- | --- | --- |
| O=c1c2ncn(C3CCCO3)c2n(-c2ccccc2)c(=S)n1-c1ccccc1 (stereo unspecified) | > 100 |  |
| CC(=O)c1c(O)ccc2c1c1c(n2C)C(=O)c2ccccc2C1=O | > 100 |  |
| O=C1CCC/C=C\C[C@H]2C=CC(=O)/C2=C/C[C@H](C/C=C\CC(F)(F)F)O1 | 0.78 | 0.342 |
| Oc1cn(-c2ccc(Cl)cc2)nc1-c1n[nH]c(=S)n1-c1ccccc1 | 15.4 |  |
| CC(C)=CCc1cc(O)cc2c1OC(C=C(C)C)C1=C2C(=O)C2=C(C1=O)S(=O)(=O)CCN2 (stereo unspecified) | 5.05 | 2.75 |

Tested on: OVCAR-8 ovarian
Experiment: DTP human tumour cell line panel, 48 h

| SMILES | TGI [µM] | GI50 [µM] |
| --- | --- | --- |
| O=c1c2ncn(C3CCCO3)c2n(-c2ccccc2)c(=S)n1-c1ccccc1 (stereo unspecified) | > 100 |  |
| CC(=O)c1c(O)ccc2c1c1c(n2C)C(=O)c2ccccc2C1=O | > 100 |  |
| O=C1CCC/C=C\C[C@H]2C=CC(=O)/C2=C/C[C@H](C/C=C\CC(F)(F)F)O1 | 1.34 | 0.423 |
| Oc1cn(-c2ccc(Cl)cc2)nc1-c1n[nH]c(=S)n1-c1ccccc1 | 34.6 |  |
| CC(C)=CCc1cc(O)cc2c1OC(C=C(C)C)C1=C2C(=O)C2=C(C1=O)S(=O)(=O)CCN2 (stereo unspecified) | 6.72 | 3.09 |

Tested on: A498 renal
Experiment: DTP human tumour cell line panel, 48 h

| SMILES | TGI [µM] | GI50 [µM] |
| --- | --- | --- |
| O=c1c2ncn(C3CCCO3)c2n(-c2ccccc2)c(=S)n1-c1ccccc1 (stereo unspecified) | > 100 |  |
| CC(=O)c1c(O)ccc2c1c1c(n2C)C(=O)c2ccccc2C1=O | > 100 |  |
| O=C1CCC/C=C\C[C@H]2C=CC(=O)/C2=C/C[C@H](C/C=C\CC(F)(F)F)O1 | 4.89 | 2.56 |
| Oc1cn(-c2ccc(Cl)cc2)nc1-c1n[nH]c(=S)n1-c1ccccc1 | 37.5 |  |
| CC(C)=CCc1cc(O)cc2c1OC(C=C(C)C)C1=C2C(=O)C2=C(C1=O)S(=O)(=O)CCN2 (stereo unspecified) | > 16.7 | 9.61 |

Tested on: K-562 leukemia
Experiment: DTP human tumour cell line panel, 48 h

| SMILES | TGI [µM] | GI50 [µM] |
| --- | --- | --- |
| O=c1c2ncn(C3CCCO3)c2n(-c2ccccc2)c(=S)n1-c1ccccc1 (stereo unspecified) | > 100 |  |
| CC(=O)c1c(O)ccc2c1c1c(n2C)C(=O)c2ccccc2C1=O | > 100 |  |
| O=C1CCC/C=C\C[C@H]2C=CC(=O)/C2=C/C[C@H](C/C=C\CC(F)(F)F)O1 | 2.6 | 0.503 |
| Oc1cn(-c2ccc(Cl)cc2)nc1-c1n[nH]c(=S)n1-c1ccccc1 | > 100 |  |
| CC(C)=CCc1cc(O)cc2c1OC(C=C(C)C)C1=C2C(=O)C2=C(C1=O)S(=O)(=O)CCN2 (stereo unspecified) | > 16.7 | 4.68 |

Tested on: CCRF-CEM leukemia
Experiment: DTP human tumour cell line panel, 48 h

| SMILES | TGI [µM] | GI50 [µM] |
| --- | --- | --- |
| O=c1c2ncn(C3CCCO3)c2n(-c2ccccc2)c(=S)n1-c1ccccc1 (stereo unspecified) | > 100 |  |
| CC(=O)c1c(O)ccc2c1c1c(n2C)C(=O)c2ccccc2C1=O | > 44.7 |  |
| O=C1CCC/C=C\C[C@H]2C=CC(=O)/C2=C/C[C@H](C/C=C\CC(F)(F)F)O1 | 1.71 | 0.465 |
| CC(C)=CCc1cc(O)cc2c1OC(C=C(C)C)C1=C2C(=O)C2=C(C1=O)S(=O)(=O)CCN2 (stereo unspecified) | > 16.7 | 5.81 |

Tested on: SNB-19 CNS
Experiment: DTP human tumour cell line panel, 48 h

| SMILES | TGI [µM] | GI50 [µM] |
| --- | --- | --- |
| CC(=O)c1c(O)ccc2c1c1c(n2C)C(=O)c2ccccc2C1=O | > 100 |  |
| O=C1CCC/C=C\C[C@H]2C=CC(=O)/C2=C/C[C@H](C/C=C\CC(F)(F)F)O1 | 3.71 | 0.867 |
| Oc1cn(-c2ccc(Cl)cc2)nc1-c1n[nH]c(=S)n1-c1ccccc1 | > 100 |  |
| CC(C)=CCc1cc(O)cc2c1OC(C=C(C)C)C1=C2C(=O)C2=C(C1=O)S(=O)(=O)CCN2 (stereo unspecified) | 5.15 | 2.78 |

Tested on: EKVX NSCLC
Experiment: DTP human tumour cell line panel, 48 h

| SMILES | TGI [µM] | GI50 [µM] |
| --- | --- | --- |
| O=c1c2ncn(C3CCCO3)c2n(-c2ccccc2)c(=S)n1-c1ccccc1 (stereo unspecified) | > 100 |  |
| CC(=O)c1c(O)ccc2c1c1c(n2C)C(=O)c2ccccc2C1=O | > 48.5 |  |
| O=C1CCC/C=C\C[C@H]2C=CC(=O)/C2=C/C[C@H](C/C=C\CC(F)(F)F)O1 | 3.42 | 0.893 |
| Oc1cn(-c2ccc(Cl)cc2)nc1-c1n[nH]c(=S)n1-c1ccccc1 | 82.1 |  |
| CC(C)=CCc1cc(O)cc2c1OC(C=C(C)C)C1=C2C(=O)C2=C(C1=O)S(=O)(=O)CCN2 (stereo unspecified) | 9.16 | 3.3 |

Tested on: T-47D breast
Experiment: DTP human tumour cell line panel, 48 h

| SMILES | TGI [µM] | GI50 [µM] |
| --- | --- | --- |
| O=c1c2ncn(C3CCCO3)c2n(-c2ccccc2)c(=S)n1-c1ccccc1 (stereo unspecified) | > 100 |  |
| CC(=O)c1c(O)ccc2c1c1c(n2C)C(=O)c2ccccc2C1=O | 4.46 |  |
| O=C1CCC/C=C\C[C@H]2C=CC(=O)/C2=C/C[C@H](C/C=C\CC(F)(F)F)O1 | 2.86 | 0.635 |
| Oc1cn(-c2ccc(Cl)cc2)nc1-c1n[nH]c(=S)n1-c1ccccc1 | > 100 |  |
| CC(C)=CCc1cc(O)cc2c1OC(C=C(C)C)C1=C2C(=O)C2=C(C1=O)S(=O)(=O)CCN2 (stereo unspecified) | 12.7 | 3.57 |

Tested on: TK-10 renal
Experiment: DTP human tumour cell line panel, 48 h

| SMILES | TGI [µM] | GI50 [µM] |
| --- | --- | --- |
| O=c1c2ncn(C3CCCO3)c2n(-c2ccccc2)c(=S)n1-c1ccccc1 (stereo unspecified) | > 100 |  |
| CC(=O)c1c(O)ccc2c1c1c(n2C)C(=O)c2ccccc2C1=O | > 28.1 |  |
| O=C1CCC/C=C\C[C@H]2C=CC(=O)/C2=C/C[C@H](C/C=C\CC(F)(F)F)O1 | 2.17 | 0.618 |
| Oc1cn(-c2ccc(Cl)cc2)nc1-c1n[nH]c(=S)n1-c1ccccc1 | 58.7 |  |
| CC(C)=CCc1cc(O)cc2c1OC(C=C(C)C)C1=C2C(=O)C2=C(C1=O)S(=O)(=O)CCN2 (stereo unspecified) | > 16.7 | > 16.7 |

Tested on: NCI-H460 lung
Experiment: DTP human tumour cell line panel, 48 h

| SMILES | TGI [µM] | GI50 [µM] |
| --- | --- | --- |
| O=c1c2ncn(C3CCCO3)c2n(-c2ccccc2)c(=S)n1-c1ccccc1 (stereo unspecified) | > 100 |  |
| CC(=O)c1c(O)ccc2c1c1c(n2C)C(=O)c2ccccc2C1=O | > 100 |  |
| O=C1CCC/C=C\C[C@H]2C=CC(=O)/C2=C/C[C@H](C/C=C\CC(F)(F)F)O1 | 1.73 | 0.508 |
| Oc1cn(-c2ccc(Cl)cc2)nc1-c1n[nH]c(=S)n1-c1ccccc1 | 59.4 |  |
| CC(C)=CCc1cc(O)cc2c1OC(C=C(C)C)C1=C2C(=O)C2=C(C1=O)S(=O)(=O)CCN2 (stereo unspecified) | > 16.7 | 5.23 |

Tested on: IGROV1 ovarian
Experiment: DTP human tumour cell line panel, 48 h

| SMILES | TGI [µM] | GI50 [µM] |
| --- | --- | --- |
| O=c1c2ncn(C3CCCO3)c2n(-c2ccccc2)c(=S)n1-c1ccccc1 (stereo unspecified) | > 100 |  |
| O=C1CCC/C=C\C[C@H]2C=CC(=O)/C2=C/C[C@H](C/C=C\CC(F)(F)F)O1 | 1.98 | 0.596 |
| Oc1cn(-c2ccc(Cl)cc2)nc1-c1n[nH]c(=S)n1-c1ccccc1 | 22.2 |  |
| CC(C)=CCc1cc(O)cc2c1OC(C=C(C)C)C1=C2C(=O)C2=C(C1=O)S(=O)(=O)CCN2 (stereo unspecified) | 9.17 | 3.23 |

Tested on: SN12C renal
Experiment: DTP human tumour cell line panel, 48 h

| SMILES | TGI [µM] | GI50 [µM] |
| --- | --- | --- |
| O=c1c2ncn(C3CCCO3)c2n(-c2ccccc2)c(=S)n1-c1ccccc1 (stereo unspecified) | > 100 |  |
| O=C1CCC/C=C\C[C@H]2C=CC(=O)/C2=C/C[C@H](C/C=C\CC(F)(F)F)O1 | 2.04 | 0.492 |
| Oc1cn(-c2ccc(Cl)cc2)nc1-c1n[nH]c(=S)n1-c1ccccc1 | > 100 |  |

— PubChem BioAssay (NCI)
